Assay [1] concerns TNFα synthesis in RAW 264.7 murine macrophages. Kind of assay: LPS-induced TNFα synthesis in RAW 264.7 murine macrophages. Type of assay: cell-based, mouse. The conditions noted are these: 10 μM; relative to vehicle alone; FIG. 5. Here is the method:
The mouse macrophage cell line RAW 264.7 was cultured in DMEM supplemented with foetal calf serum (FCS), […] glutamine and 50 U/ml penicillin/streptomycin. Cells were treated with either test compound (in 0.025% DMSO) or vehicle alone, and added one hour before 50 ng/ml LPS. After incubation for 24 h, culture media was collected for PGE2 or TXB2 measurement by ELISA (Cayman Chemical), and TNFα measurement using an ELISA (Becton Dickinson). Test compounds were examined a concentration of 10 μM. […] Consequently, to assess the effect of test compounds on various analytes, cell viability was taken into consideration with the use of the formula: Actual effect of test compound=measured effect−(effect on cell viability×measured effect)

A short description of assay [2]: Free radical scavenging with DPPH. The conditions noted are these: DPPH, 20 minutes, absorbance 517 nm; Table 4; read-out: Free radical scavenging ability EC50. Summed up: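 Compounds reacted with DPPH in ethanol for 20 min, screened at 100 μM, and absorbance at 517 nm compared with a DPPH-ethanol blank. IC50 was taken as the concentration giving a 0.6 absorbance change, with 1.2 units representing total scavenging.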
Background: Loss of DPPH colour is used to gauge radical scavenging.

Assay [3] concerns human umbilical vein smooth muscle cells (HUVSMC). Kind of assay: Proliferation of human umbilical vein smooth muscle cells (MTT). Format: cell-based. The settings on record: 10 μM; 10% FCS, 5 days; FIG. 8. As to the method: The effect of test compounds on human umbilical vein smooth muscle cells (HUVSMC) was examined. Cells were seeded into 96 well plates at a low seeding rate of 1.6×10^3 cells per well, and allowed to attach for 24 hours. The cells were then washed twice with medium without FCS and incubated in medium without FCS for 20 hours to serum starve them. Analogue was prepared in medium without FCS at 20 μM and added to the plates and incubated for one hour. Final analogue concentration was therefore 10 μM. The cells were then stimulated by adding medium +20% FCS, to give a final FCS concentration of 10%. The cells were incubated until the control cells i.e. those with FCS and no compound, were just confluent (5 days). An MTT assay was performed, and difference in absorbance in analogue treated cells from the control was calculated using the formula: test/control*100−100. Results
The effect of test compounds on human umbilical vein smooth muscle cells (HUVSMC), was examined. Cells, tissue explants from a neonate (HRI—passage 2), were seeded into 96 well plates at 1×10^3 cells per well, and allowed to attach for 24 hours. They were then washed twice and incubated in medium without foetal calf serum (FCS) for 24-48 hours to serum-starve them. Test compounds were prepared in medium without FCS and added to the plates and incubated for one hour. Medium with FCS was added to give a final concentration of 10% and the plates incubated for 4-5 days until the controls were just confluent.

The next assay relates to CP70. Kind of assay: Anti-cancer activity, CP70 ovarian cancer cells (MTT). Format: cell-based. The settings on record: 120 h, 5 days.
The next assay has as its system HPAC. Kind of assay: Anti-cancer activity, HPAC pancreatic cancer cells (MTT). Format: cell-based. The settings on record: Homo sapiens, 120 h, 5 days.
For a further assay, the system named is MM200. As to the kind of experiment: Anti-cancer activity, MM200 melanoma cells (MTT). Type of assay: cell-based. The settings on record: 120 h; 5 days, MTT.
Another assay deals with cancer cell lines. As to the kind of experiment: Anti-cancer activity, cancer cell lines tested as a group (MTT). Format: cell-based.
Assay [4] relates to neonatal foreskin fibroblasts (NFF). Kind of assay: Toxicity to normal cells, neonatal foreskin fibroblasts. Type of assay: cell-based. The settings on record: Fibroblast; normal, non-transformed cells; read-out: IC50 μM, NFF Fibroblast. Here is the method: (§1) IC50 values were determined for each cell line. Cells were seeded in 96-well plates at an appropriate cell density as determined from growth kinetics analysis and cultured for 5 days in the absence and presence of the test compounds. Cell proliferation was assessed after the addition of 20 μl of 3-4,5 dimethylthiazol-2,5-diphenyl tetrazolium bromide (MTT, 2.5 mg/ml in PBS, Sigma) for 3-4 hrs at 37° C. according to manufacturer's instructions. IC50 values were calculated from semi-log plots of % of control proliferation on the y-axis against log dose on the x-axis.
(§2) The neonatal foreskin fibroblasts (NFF) were a gift from Dr. Peter Parsons (Queensland Institute of Medical Research). Rabbit kidney (RK-13) cells were obtained from Miller Whalley (Macquarie University). Both cell lines were cultured in RPMI supplemented with 10% FCS(CSL, Australia), penicillin (100 U/ml), streptomycin ([…]), L-glutamine (2 mM) and sodium bicarbonate (1.2 g/L), and cultured at 37° C. in a humidified atmosphere of 5% CO2. IC50 values were determined as described above.

For assay [5], the system named is Rabbit kidney (RK-13) cells. Kind of assay: Toxicity to normal cells, rabbit kidney (RK-13) cells. The conditions noted are these: Oryctolagus cuniculus, normal, non-transformed cells, read-out: IC50 μM, RK Rabbit Kidney. Format: cell-based. As to the method: as §1, §2
Assay [6] has as its target T1, GAL4-PPARγ fusion protein (Homo sapiens, UniProt P37231).
T1 construct: host or cells: HEK293 (human embryonic kidney), stably transfected
Kind of assay: PPARγ activity in transfected HEK293 cells (beta-lactamase reporter). Format: cell-based. The settings on record: FIG. 13: 1 μM. In a few lines:
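HEK293 cells stably expressing GAL4-DBD/PPARγ-LBD fusion with beta-lactamase reporter, treated with compound at 1, 5 and 10 μM for 16-18 h. Beta-lactamase read via FRET substrate (2 h, room temperature), ex 409 nm, em 460/530 nm; background-subtracted emission ratio.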

The test system of a further assay is HT29. Kind of assay: Anti-cancer activity, HT-29 colon adenocarcinoma cells (MTT). Type of assay: cell-based. The conditions noted are these: Homo sapiens, HT-29, 120 h, 5 days, read-out: IC50 μM, HT29 Colorectal.
A further assay has as its system MDA-MB-468. As to the kind of experiment: Anti-cancer activity, MDA-MB-468 breast cancer cells (MTT). Type of assay: cell-based. The conditions noted are these: Homo sapiens, MDA-MB-468, 120 h, 5 days.
The next assay deals with NCI-H460. Kind of assay: Anti-cancer activity, NCI-H460 large cell lung cancer cells (MTT). Type of assay: cell-based. The conditions noted are these: Homo sapiens, NCI-H460, 120 h, 5 days, read-out: IC50 μM, NCI-H460 Lung (NSCLC).

T1 sequence (P37231 238-503 limits assumed): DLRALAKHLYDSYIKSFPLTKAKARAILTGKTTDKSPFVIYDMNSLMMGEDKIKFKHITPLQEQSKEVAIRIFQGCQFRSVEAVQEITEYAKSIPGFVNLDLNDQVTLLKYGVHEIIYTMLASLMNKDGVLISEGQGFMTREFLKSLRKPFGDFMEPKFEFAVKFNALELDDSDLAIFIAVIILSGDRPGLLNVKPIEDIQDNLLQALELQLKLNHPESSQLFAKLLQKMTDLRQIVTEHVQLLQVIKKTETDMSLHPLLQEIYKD
T1 sequence (P04386 1-147 partner limits assumed): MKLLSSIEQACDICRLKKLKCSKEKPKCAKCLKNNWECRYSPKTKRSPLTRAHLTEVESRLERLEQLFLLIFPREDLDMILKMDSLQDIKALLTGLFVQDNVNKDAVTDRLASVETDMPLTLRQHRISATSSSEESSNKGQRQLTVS

In the case of `COCCCN1COc2cc3c(cc2C1)C=C(c1cccc(O)c1)CO3` [Compound 17, 3-(3-(3-Methoxypropyl)-2,3,4,8-tetrahydrochromeno[6,7-e][1,3]oxazin-7-yl)phenol], the “mean change of LPS-induced TNFα synthesis” value in assay [1] is on record as “greatest inhibition”. The concentration giving a half-maximal response (EC50) in assay [2] amounted to 40 µM. Besides, the “effect on proliferation of HUVSMCs induced by FCS” value in [3] is reported as “significantly inhibited the proliferation”. Also, the IC50 was 4.5 µM in the assay with CP70; 5.3 µM in the assay with HPAC; 2.3 µM with MM200; 1 to 5 µM with cancer cell lines (read-out: most potent activity against the respective cell lines tested); 55.9 µM in [4]; 5.5 µM in [5]. Also, the “activity against CP70, HPAC and MM200 cell lines” value in the assay on cancer cell lines (CP70, HPAC and MM200) is reported as “active”.
For the molecule `CCCN1COc2cc3c(cc2C1)C=C(c1ccc(O)cc1)C(CC)O3` (centres unmarked) [Compound 27, 4-(8-Ethyl-3-propyl-2,3,4,8-tetrahydrochromeno[6,7-e][1,3]oxazin-7-yl)phenol], the EC50 in assay [2] was determined as 26 µM. In addition, in [6], the “PPARγ activation, increase in beta-lactamase activity over media only control” value is on record as “PPARγ agonist activity”. Also, the IC50 in the assay with CP70 is 10.9 ± 1.5 µM; with HPAC it was 12.4 ± 4 µM; in the assay with HT29 it was 50.8 ± 1 µM; with MDA-MB-468, 14.9 ± 1 µM; in the assay with MM200 it was 23.2 ± 1.1 µM; in the assay with NCI-H460, 17.8 ± 1.1 µM. Besides, the IC50 in assay [4] was determined as 40.3 ± 1.2 µM; in assay [5], 14.5 ± 1 µM.

Usually EC50 stands for the concentration needed to bring the measured effect to its halfway point.
